Data published in PubChem BioAssay (NCI).
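All cell lines were grown in 96-well plates and treated with compound for 48 hours. TGI: total growth inhibition.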

What was measured:
Assay in all cases: NCI tumour cell line growth inhibition, 48 h
786-0 renal = tested on: 786-0 renal
A498 renal = tested on: A498 renal
A549 NSCLC = tested on: A549 NSCLC
ACHN renal = tested on: ACHN renal
BT-549 breast = tested on: BT-549 breast
CAKI-1 renal = tested on: CAKI-1 renal
CCRF-CEM leukemia = tested on: CCRF-CEM leukemia
COLO 205 colon = tested on: COLO 205 colon
DLD-1 colon = tested on: DLD-1 colon
DMS 114 small cell lung = tested on: DMS 114 small cell lung
DMS 273 small cell lung = tested on: DMS 273 small cell lung
EKVX NSCLC = tested on: EKVX NSCLC
HCC-2998 colon = tested on: HCC-2998 colon
HCT-116 colon = tested on: HCT-116 colon
HCT-15 colon = tested on: HCT-15 colon
HL-60(TB) leukemia = tested on: HL-60(TB) leukemia
HOP-18 NSCLC = tested on: HOP-18 NSCLC
HOP-62 NSCLC = tested on: HOP-62 NSCLC
HOP-92 NSCLC = tested on: HOP-92 NSCLC
HT29 colon = tested on: HT29 colon
IGROV1 ovarian = tested on: IGROV1 ovarian
K-562 leukemia = tested on: K-562 leukemia
KM12 colon = tested on: KM12 colon
KM20L2 colon = tested on: KM20L2 colon
LOX IMVI melanoma = tested on: LOX IMVI melanoma
M19-MEL melanoma = tested on: M19-MEL melanoma
MALME-3M melanoma = tested on: MALME-3M melanoma
MCF7 breast = tested on: MCF7 breast
MDA-MB-231 breast = tested on: MDA-MB-231 breast
MOLT-4 leukemia = tested on: MOLT-4 leukemia
NCI-H226 lung = tested on: NCI-H226 lung
NCI-H23 lung = tested on: NCI-H23 lung
NCI-H460 lung = tested on: NCI-H460 lung
NCI-H522 lung = tested on: NCI-H522 lung
NCI/ADR-RES ovarian = tested on: NCI/ADR-RES ovarian
OVCAR-3 ovarian = tested on: OVCAR-3 ovarian
OVCAR-4 ovarian = tested on: OVCAR-4 ovarian
OVCAR-5 ovarian = tested on: OVCAR-5 ovarian
OVCAR-8 ovarian = tested on: OVCAR-8 ovarian
P388 leukemia = tested on: P388 leukemia
P388/ADR leukemia = tested on: P388/ADR leukemia
RPMI-8226 leukemia = tested on: RPMI-8226 leukemia
RXF 393 renal = tested on: RXF 393 renal
SF-268 CNS = tested on: SF-268 CNS
SF-295 CNS = tested on: SF-295 CNS
SF-539 CNS = tested on: SF-539 CNS
SK-MEL-2 melanoma = tested on: SK-MEL-2 melanoma
SK-MEL-28 melanoma = tested on: SK-MEL-28 melanoma
SK-MEL-5 melanoma = tested on: SK-MEL-5 melanoma
SK-OV-3 ovarian = tested on: SK-OV-3 ovarian
SN12C renal = tested on: SN12C renal
SN12K1 renal = tested on: SN12K1 renal
SNB-19 CNS = tested on: SNB-19 CNS
SNB-75 CNS = tested on: SNB-75 CNS
SNB-78 CNS = tested on: SNB-78 CNS
SR leukemia = tested on: SR leukemia
SW-620 colon = tested on: SW-620 colon
U251 CNS = tested on: U251 CNS
UACC-257 melanoma = tested on: UACC-257 melanoma
UACC-62 melanoma = tested on: UACC-62 melanoma
UO-31 renal = tested on: UO-31 renal
XF 498 CNS = tested on: XF 498 CNS

SMILES: CCCCCCCCCCCCCCCCCCOP(=O)([O-])OCC[N+](C)(C)C
- TGI (786-0 renal): 0.169 µM
- TGI (A498 renal): > 46.4 µM
- TGI (A549 NSCLC): 5.13 µM
- TGI (ACHN renal): 0.37 µM
- TGI (BT-549 breast): 5.82 µM
- TGI (CAKI-1 renal): 22.8 µM
- TGI (CCRF-CEM leukemia): 2.52 µM
- TGI (COLO 205 colon): 0.5 µM
- TGI (DLD-1 colon): 16.9 µM
- TGI (DMS 114 small cell lung): 26.8 µM
- TGI (DMS 273 small cell lung): 13.4 µM
- TGI (EKVX NSCLC): 8.29 µM
- TGI (HCC-2998 colon): 7.01 µM
- TGI (HCT-116 colon): 3.12 µM
- TGI (HCT-15 colon): 3.24 µM
- TGI (HL-60(TB) leukemia): 5.83 µM
- TGI (HOP-18 NSCLC): 30.1 µM
- TGI (HOP-62 NSCLC): 1.38 µM
- TGI (HOP-92 NSCLC): 1.07 µM
- TGI (HT29 colon): 2.2 µM
- TGI (IGROV1 ovarian): 26.1 µM
- TGI (K-562 leukemia): 10.4 µM
- TGI (KM12 colon): 0.632 µM
- TGI (KM20L2 colon): 12.5 µM
- TGI (LOX IMVI melanoma): 1.96 µM
- TGI (M19-MEL melanoma): 16.3 µM
- TGI (MALME-3M melanoma): 3.38 µM
- TGI (MCF7 breast): 3.11 µM
- TGI (MDA-MB-231 breast): 3.5 µM
- TGI (MOLT-4 leukemia): 5.89 µM
- TGI (NCI-H226 lung): 3.31 µM
- TGI (NCI-H23 lung): 30.4 µM
- TGI (NCI-H460 lung): 1.94 µM
- TGI (NCI-H522 lung): 1.46 µM
- TGI (NCI/ADR-RES ovarian): 5.22 µM
- TGI (OVCAR-3 ovarian): 2.79 µM
- TGI (OVCAR-4 ovarian): 1.29 µM
- TGI (OVCAR-5 ovarian): 6.82 µM
- TGI (OVCAR-8 ovarian): 2.39 µM
- TGI (P388 leukemia): 15.1 µM
- TGI (P388/ADR leukemia): 27.3 µM
- TGI (RPMI-8226 leukemia): 2.64 µM
- TGI (RXF 393 renal): 23.1 µM
- TGI (SF-268 CNS): 2.21 µM
- TGI (SF-295 CNS): 3.49 µM
- TGI (SF-539 CNS): 2.59 µM
- TGI (SK-MEL-2 melanoma): 3.11 µM
- TGI (SK-MEL-28 melanoma): 42.2 µM
- TGI (SK-MEL-5 melanoma): 17.5 µM
- TGI (SK-OV-3 ovarian): 43.4 µM
- TGI (SN12C renal): 1.53 µM
- TGI (SN12K1 renal): 26.9 µM
- TGI (SNB-19 CNS): 47.9 µM
- TGI (SNB-75 CNS): 1.7 µM
- TGI (SNB-78 CNS): 15.8 µM
- TGI (SR leukemia): > 100 µM
- TGI (SW-620 colon): 6.66 µM
- TGI (U251 CNS): 4.71 µM
- TGI (UACC-257 melanoma): 25.6 µM
- TGI (UACC-62 melanoma): 20.8 µM
- TGI (UO-31 renal): 36.1 µM
- TGI (XF 498 CNS): 25.4 µM
